The subject of one assay is C57BI6 mouse. The assay is described as follows: In vivo evaluation on C57BI6 mouse: body weight and plasma lipids. Conditions: C57BI6 mouse, 3, 10, and 30 mpk per os, 14 days, vs control. The protocol: The effect of the compounds according to the invention is evaluated in vivo on the C57BI6 mouse by measuring the body weight evolution, the plasma HDL cholesterol and triglyceride levels, after 14 days of a per os treatment with the compounds according to the invention.
Female C57BI6 mice were kept on a 12 hour/12 hour light/dark cycle at a constant temperature of 20±3° C. After a one week acclimatization period, the mice were weighed and divided into groups of 6 animals selected such as the distribution of body weight and of plasma lipid rate, determined before the experiment, was uniform. The tested compounds were suspended in carboxymethylcellulose (Sigma C4888) and administered to the animals by gastric gavage, once a day for 14 days at the chosen doses. The animals had free access to food and water (standard diet). Taking of food and weight gain are recorded throughout the experiment. At the end of the experiment, after a 4 hour fast, the animals were anesthetized and a blood sample was taken on anticoagulant (EDTA). Then the mice were weighed and euthanized. The plasma was separated by centrifugation at 3000 rotations/minute for 20 minutes. The samples were kept at +4° C. Hepatic tissue samples were removed, frozen in liquid nitrogen, and then kept at −80° C. for later analyses.
Low-density lipoproteins (VLDL and LDL) are precipitated by Phosphotungstate. The precipitate is eliminated by centrifugation. HDL-cholesterol present in the supernatant is measured by enzymatic assays (bioMérieux-Lyon-France) in accordance with the provider's recommendations.
Plasma triglyceride concentrations were measured by enzymatic assays (bioMérieux-Lyon-France) according to the provider's recommendations.

The test system of the next assay is db/db mouse. The assay is described as follows: In vivo evaluation on db/db mouse: body weight, glycemia, insulinemia, plasma lipids. As to conditions: 50 mpk per os, 28 days. The protocol:
The effect of the compounds according to the invention is evaluated in vivo on the db/db mouse by measuring the body weight evolution, the glucose levels, the insulin levels, the plasma total cholesterol and triglyceride levels, and by analyzing the distribution of cholesterol in different plasma lipoprotein fractions, after 28 days of a per os treatment with compounds according to the invention.
Female db/db mice were kept on a 12 hour/12 hour light/dark cycle at a constant temperature of 20±3° C. After a one week acclimatization period, the mice were weighed and divided into groups of 8 animals selected so as to render uniform the distribution of their body weights and their plasma lipid rates, determined before the experiment. The tested compounds were suspended in carboxymethylcellulose (Sigma C4888) and administered intra-gastric tube feeding once a day for 28 days at the chosen dose. The animals had free access to food and water (standard diet). Taking of food and weight gain are recorded throughout the experiment. At the end of the experiment, the animals were anesthetized after a 4 hour fast, a blood sample was taken using (EDTA) anticoagulant, then the mice were weighed and euthanized. The plasma was separated by centrifugation at 3000 rotations/minute for 20 minutes. The samples were kept at +4° C. The hepatic tissue and skeletal muscle tissue samples were taken and frozen immediately in liquid nitrogen then conserved at −80° C. for later analysis.
Murine plasma glucose is measured out according to an enzyme-colorimetric method using a Glucose RTU kit (Biomérieux). Glucose is transformed into gluconic acid under the action of glucose oxidase; the reaction releases hydrogen peroxide. Hydrogen peroxide is measured according to the Trinder reaction which, under the action of a peroxidase and in the presence of phenol and amino-4-antipyrine, produces water and a colored product, quinoneimine. The color intensity, due to the quinoneimine, is proportional to the amount of glucose present in the sample.
Murine insulin is measured using ELISA method (using the INSKR020 kit from provider Crystal chem.). A microplate is coated with a mouse anti-insulin antibody. Then, the serum to be assayed for insulin is placed onto the plate. A guinea pig anti-insulin antibody is used to recognize the complex formed by the mouse insulin and the anti-insulin monoclonal antibody. Finally an anti-guinea pig antibody labeled with peroxidase is added and bind to the guinea pig anti-insulin antibody. The colorimetric reaction is performed by adding an OPD (ortho phenyl diamine) enzyme substrate. The intensity of the color is proportional to the amount of insulin present in the sample.
Plasma lipid concentrations (total cholesterol and triglycerides) are measured by enzymatic assays (bioMérieux-Lyon-France) according to the provider's recommendations.
The different lipid fractions (VLDL, LDL, HDL) in the plasma were separated using gel-filtration chromatography. Cholesterol concentrations were then measured for each fraction by enzymatic assays (bioMérieux-Lyon-France) according to the provider's recommendations.

`Cc1cc(CCC(=O)c2ccc(OC(F)(F)F)cc2)cc(C)c1OC(C)(C)C(=O)O` [Compound 1, 2-[2,6-dimethyl-4-[3-[4-(trifluoromethyloxy)phenyl]-3-oxo-propyl]phenoxy]-2-methyl-propanoic acid]: in the assay with C57BI6 mouse, the body weight gain entry is “weight loss”, the “plasma HDL-cholesterol” value is on record as “very significantly increased” and the plasma triglycerides result is listed as “very significantly diminished”. In the assay with db/db mouse, the “HDL-cholesterol fraction (distribution of cholesterol in plasma lipoprotein fractions)” value is reported as “significant increase”, the “glycemia (plasma glucose)” value is listed as “significantly reduced” and the “insulinemia (plasma insulin)” value was “significantly reduced”. In the assay with db/db mouse (vs control), the body weight gain result was “weight loss”, the “plasma free fatty acids” value is “very significantly decreased”, the plasma triglycerides result was “very significantly decreased” and the total plasma cholesterol result is on record as “significantly increased”.
